Tests used:
Type in all cases: in vivo
Amaranthus retroflexus = test: Test Example 5: herbicidal effect by foliage application, plastic box (symbol N); details: 320 g/ha, 3 weeks after application
In short: (§1)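 Herbicide, formulated as an emulsion and diluted in water, is sprayed onto the aerial parts of 14-day seedlings. These were grown at 25° C. to 30° C. in sterilized diluvial soil; effects are graded after 3 weeks.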

rice plant = test: Test Example 5: effect on crop by foliage application, plastic box (symbol b); details: 320 g/ha, 3 weeks after application
In short: (§2)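 Box culture: sterile diluvial soil, seeds spot-sown, ~1.5 cm cover, raised under glass at 25–30° C.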

corn = test: Test Example 5: effect on crop by foliage application, plastic box (symbol c); details: 320 g/ha, 3 weeks after application
In short: as §2

beet = test: Test Example 5: effect on crop by foliage application, plastic box (symbol f); details: 320 g/ha, 3 weeks after application
In short: as §2

wheat [1] = test: Test Example 5: effect on crop by foliage application, plastic box (symbol e); details: 320 g/ha, 3 weeks after application
In short: as §2

Alopecurus myosuroides = test: Test Example 5: herbicidal effect by foliage application, plastic box (symbol J); details: 320 g/ha, 3 weeks after application
In short: as §1

[2] = tested on: directly sowed rice plant; test: Test Example 3: effect on crop by foliage application, Wagner pot (symbol b); details: application herbicide amount 320 g/ha
In short: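 Greenhouse culture at 25–30 °C of seeded rice, Cyperus difformis, Leptochloa chinensis and Echinochloa crus-galli var. crus-galli, in alluvial soil held under 0.1–0.5 cm of water in a Wagner pot.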

wheat [3] = test: Test Example 4: effect on crop by soil treatment (symbol e); details: application herbicide amount 320 g/ha
In short: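 Diluvial soil (sterilized) in boxes; seeds placed spot-wise alongside weed species; ~1.5 cm covering soil. Greenhouse, 25–30° C.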

Stellaria media = test: Test Example 5: herbicidal effect by foliage application, plastic box (symbol P); details: 320 g/ha, 3 weeks after application
In short: as §1

transplanted rice plant = test: Test Example 1: effect on crop, application before weed generation in submerged conditions (symbol a); details: application herbicide amount 320 g/ha
In short: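 Rice at 2.5 leaf stage transplanted into submerged soil (4 cm depth) sown with three weed species; herbicide applied before weed emergence.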

Scirpus juncoides = test: Test Example 2: herbicidal activity, application during weed generation in submerged conditions (symbol B); details: Table 23; application herbicide amount 320 g/ha; grade 0-5 by criteria of Test Example 1
In short: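 Steps: fill pots with alluvial soil; add water to 4 cm depth; co-sow the three weeds; grow at 25° C. to 30° C. under glass; at 1–2 leaves, dose the floodwater with diluted emulsion; rate damage visually after 3 weeks.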

[4] = tested on: Echinochloa crus-galli var. crus-galli; test: Test Example 3: herbicidal effect by foliage application, Wagner pot (symbol H); details: application herbicide amount 320 g/ha
In short: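 Post-emergence, paddy-type test: seedlings 14 d old in shallow-flooded (0.1–0.5 cm) alluvial soil, 25–30 °C greenhouse. Emulsion diluted to target rate, sprayed on leaves. Read-out: visual effect on each species at 3 weeks, per set criteria.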

[5] = tested on: Echinochloa oryzacola Vasing.; test: Test Example 1: herbicidal activity, application before weed generation in submerged conditions (symbol A); details: application herbicide amount 320 g/ha
In short: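 Steps: alluvial soil flooded to 4 cm; weed seeds sown together; rice seedlings (2.5 leaf) transplanted; diluted emulsion applied to water surface the same day as sowing; plants grown at 25–30 °C in greenhouse; herbicidal effect rated on a 0–5 scale at 3 weeks.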

Structure (SMILES) | N: Amaranthus retroflexus, herbicidal effect grade (Amaranthus retroflexus) | b: directly sowed rice plant, effect on crop grade (rice plant) | c: corn, effect on crop grade (corn) | f: beet, effect on crop grade (beet) | e: wheat, effect on crop grade (wheat [1]) | J: Alopecurus myosuroides, herbicidal effect grade (Alopecurus myosuroides) | effect on crop b (directly sowed rice plant), grade 0-5 [2] | e (wheat) effect on crop grade (wheat [3]) | P: Stellaria media, herbicidal effect grade (Stellaria media) | Effect grade on crop, a: transplanted rice plant (transplanted rice plant) | Herbicidal effect grade, B: Scirpus juncoides (Scirpus juncoides) | herbicidal effect on H (Echinochloa crus-galli var. crus-galli), grade 0-5 [4] | Herbicidal effect grade, A: Echinochloa oryzacola Vasing. [5]
CON=CC(C)(C)C1CC(O)=C(c2c(C)cc(C)cc2C)C1=O (stereo not drawn) [1-030] | 0 (Herbicidal ratio of 5% or lower (almost no effect)) | 5 (Herbicidal ratio of 90% or more (almost completely withered)) | 1 (Herbicidal ratio of 5% or higher and lower than 20%) | 0 (Herbicidal ratio of 5% or lower (almost no effect)) | 0 (Herbicidal ratio of 5% or lower (almost no effect)) | 4 (Herbicidal ratio of 70% or higher and lower than 90%) | 5 (Herbicidal ratio of 90% or more (almost completely withered)) | 0 (Herbicidal ratio of 5% or lower (almost no effect)) | 0 (Herbicidal ratio of 5% or lower (almost no effect)) | 1 (Herbicidal ratio of 5% or higher and lower than 20%) | 0 (Herbicidal ratio of 5% or lower (almost no effect)) | 5 (Herbicidal ratio of 90% or more (almost completely withered)) | 2 (Herbicidal ratio of 20% or higher and lower than 40%)
CON=C(C)CC1CC(OCC#C[Si](C)(C)C)=C(c2c(C)cc(C)cc2C)C1=O (stereo not drawn) [1-031] | 0 (Herbicidal ratio of 5% or lower (almost no effect)) | 3 (Herbicidal ratio of 40% or higher and lower than 70%) | 0 (Herbicidal ratio of 5% or lower (almost no effect)) | 0 (Herbicidal ratio of 5% or lower (almost no effect)) | 0 (Herbicidal ratio of 5% or lower (almost no effect)) | 3 (Herbicidal ratio of 40% or higher and lower than 70%) | 5 (Herbicidal ratio of 90% or more (almost completely withered)) | 0 (Herbicidal ratio of 5% or lower (almost no effect)) | 0 (Herbicidal ratio of 5% or lower (almost no effect)) | 0 (Herbicidal ratio of 5% or lower (almost no effect)) | 2 (Herbicidal ratio of 20% or higher and lower than 40%) | 3 (Herbicidal ratio of 40% or higher and lower than 70%) | 5 (Herbicidal ratio of 90% or more (almost completely withered))
CON=C(C)C(C)C1CC(O)=C(c2c(C)cc(C)cc2C)C1=O (stereo not drawn) [1-032] | 3 (Herbicidal ratio of 40% or higher and lower than 70%) | 5 (Herbicidal ratio of 90% or more (almost completely withered)) | 5 (Herbicidal ratio of 90% or more (almost completely withered)) | 3 (Herbicidal ratio of 40% or higher and lower than 70%) | 5 (Herbicidal ratio of 90% or more (almost completely withered)) | 5 (Herbicidal ratio of 90% or more (almost completely withered)) | 5 (Herbicidal ratio of 90% or more (almost completely withered)) | 5 (Herbicidal ratio of 90% or more (almost completely withered)) | 4 (Herbicidal ratio of 70% or higher and lower than 90%) | 5 (Herbicidal ratio of 90% or more (almost completely withered)) | 4 (Herbicidal ratio of 70% or higher and lower than 90%) | 5 (Herbicidal ratio of 90% or more (almost completely withered)) | 5 (Herbicidal ratio of 90% or more (almost completely withered))
CCCCCCCCC(=O)OC1=C(c2c(C)cc(C)cc2C)C(=O)C(CC(C)=NOC)C1 (stereo not drawn) [1-033] | 4 (Herbicidal ratio of 70% or higher and lower than 90%) | 5 (Herbicidal ratio of 90% or more (almost completely withered)) | 4 (Herbicidal ratio of 70% or higher and lower than 90%) | 3 (Herbicidal ratio of 40% or higher and lower than 70%) | 5 (Herbicidal ratio of 90% or more (almost completely withered)) | 5 (Herbicidal ratio of 90% or more (almost completely withered)) | 5 (Herbicidal ratio of 90% or more (almost completely withered)) | 5 (Herbicidal ratio of 90% or more (almost completely withered)) | 3 (Herbicidal ratio of 40% or higher and lower than 70%) | 5 (Herbicidal ratio of 90% or more (almost completely withered)) | 4 (Herbicidal ratio of 70% or higher and lower than 90%) | 5 (Herbicidal ratio of 90% or more (almost completely withered)) | 5 (Herbicidal ratio of 90% or more (almost completely withered))
CCC(CC1CC(O)=C(c2c(C)cc(C)cc2C)C1=O)=NOC (stereo not drawn) [1-038] | 2 (Herbicidal ratio of 20% or higher and lower than 40%) | 5 (Herbicidal ratio of 90% or more (almost completely withered)) | 4 (Herbicidal ratio of 70% or higher and lower than 90%) | 1 (Herbicidal ratio of 5% or higher and lower than 20%) | 4 (Herbicidal ratio of 70% or higher and lower than 90%) | 5 (Herbicidal ratio of 90% or more (almost completely withered)) | 5 (Herbicidal ratio of 90% or more (almost completely withered)) | 3 (Herbicidal ratio of 40% or higher and lower than 70%) | 0 (Herbicidal ratio of 5% or lower (almost no effect)) | 5 (Herbicidal ratio of 90% or more (almost completely withered)) | 5 (Herbicidal ratio of 90% or more (almost completely withered)) | 5 (Herbicidal ratio of 90% or more (almost completely withered)) | 5 (Herbicidal ratio of 90% or more (almost completely withered))
CON=C(C)CC1CC(OC(=O)C(C)(C)F)=C(c2c(C)cc(C)cc2C)C1=O (stereo not drawn) [1-039] | 4 (Herbicidal ratio of 70% or higher and lower than 90%) | 5 (Herbicidal ratio of 90% or more (almost completely withered)) | 4 (Herbicidal ratio of 70% or higher and lower than 90%) | 3 (Herbicidal ratio of 40% or higher and lower than 70%) | 5 (Herbicidal ratio of 90% or more (almost completely withered)) | 5 (Herbicidal ratio of 90% or more (almost completely withered)) | 5 (Herbicidal ratio of 90% or more (almost completely withered)) | 4 (Herbicidal ratio of 70% or higher and lower than 90%) | 3 (Herbicidal ratio of 40% or higher and lower than 70%) | 5 (Herbicidal ratio of 90% or more (almost completely withered)) | 5 (Herbicidal ratio of 90% or more (almost completely withered)) | 5 (Herbicidal ratio of 90% or more (almost completely withered)) | 5 (Herbicidal ratio of 90% or more (almost completely withered))

— patent US11000033B2, “Ketone or oxime compound, and herbicide” (NISSAN CHEMICAL CORPORATION, priority 2014, dated 2021)
